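Five compound concentrations were applied to cells in 96-well plates for 48 hours; endpoints were derived by simple linear interpolation of the resulting dose-response curve. At the TGI there is no net growth.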
Legend:
Assay in all cases: NCI tumour cell line growth inhibition, 48 h
[1] = test system: M14 melanoma
[2] = test system: UACC-62 melanoma
[3] = test system: NCI-H23 lung
[4] = test system: HOP-18 NSCLC
[5] = test system: HCC-2998 colon
[6] = test system: KM20L2 colon
[7] = test system: SW-620 colon
[8] = test system: HCT-116 colon
[9] = test system: DLD-1 colon
[10] = test system: 786-0 renal
[11] = test system: OVCAR-4 ovarian
[12] = test system: HCT-15 colon
[13] = test system: SF-295 CNS
[14] = test system: RPMI-8226 leukemia
[15] = test system: A498 renal
[16] = test system: OVCAR-3 ovarian
[17] = test system: OVCAR-5 ovarian
[18] = test system: A549 NSCLC
[19] = test system: IGROV1 ovarian
[20] = test system: HOP-92 NSCLC
[21] = test system: SF-539 CNS
[22] = test system: RXF-631 renal
[23] = test system: DMS 114 small cell lung
[24] = test system: KM12 colon
[25] = test system: K-562 leukemia
[26] = test system: ACHN renal
[27] = test system: HL-60(TB) leukemia
[28] = test system: EKVX NSCLC
[29] = test system: SR leukemia
[30] = test system: SK-MEL-28 melanoma
[31] = test system: SNB-78 CNS
[32] = test system: TK-10 renal
[33] = test system: UO-31 renal
[34] = test system: NCI-H460 lung
[35] = test system: NCI-H522 lung
[36] = test system: SK-MEL-5 melanoma
[37] = test system: XF 498 CNS
[38] = test system: SF-268 CNS
[39] = test system: COLO 205 colon
[40] = test system: SNB-19 CNS
[41] = test system: U251 CNS
[42] = test system: M19-MEL melanoma
[43] = test system: SNB-75 CNS
[44] = test system: UACC-257 melanoma
[45] = test system: SK-MEL-2 melanoma
[46] = test system: SN12C renal
[47] = test system: RXF 393 renal
[48] = test system: OVCAR-8 ovarian
[49] = test system: MALME-3M melanoma
[50] = test system: HT29 colon
[51] = test system: SK-OV-3 ovarian
[52] = test system: HOP-62 NSCLC
[53] = test system: DMS 273 small cell lung
[54] = test system: LOX IMVI melanoma
[55] = test system: LXFL 529 NSCLC
[56] = test system: CCRF-CEM leukemia
[57] = test system: SN12K1 renal
[58] = test system: MOLT-4 leukemia
[59] = test system: CAKI-1 renal
[60] = test system: NCI-H226 lung
[61] = test system: MCF7 breast
[62] = test system: NCI/ADR-RES ovarian
[63] = test system: P388/ADR leukemia
[64] = test system: P388 leukemia

## CCOC(=O)C1=C(C)N(NC(=O)Nc2ccccc2)C2(N)N(NC(=O)Nc3ccccc3)C(C)=C(C(=O)OCC)C12C(=O)OCC (configuration not stated)
[1]
  TGI: > 100 µM
[2]
  TGI: > 100 µM
[3]
  TGI: > 100 µM
[4]
  TGI: 54.6 µM
[5]
  TGI: 80.8 µM
[6]
  TGI: > 100 µM
[7]
  TGI: > 100 µM
[8]
  TGI: 80.2 µM
[9]
  TGI: > 100 µM
[10]
  TGI: > 100 µM
[11]
  TGI: > 100 µM
[12]
  TGI: > 100 µM
[13]
  TGI: > 100 µM
[14]
  TGI: > 100 µM
[15]
  TGI: > 100 µM
[16]
  TGI: > 100 µM
[17]
  TGI: > 100 µM
[18]
  TGI: > 100 µM
[19]
  TGI: > 100 µM
[20]
  TGI: 42.8 µM
[21]
  TGI: 53.4 µM
[22]
  TGI: > 100 µM
[23]
  TGI: > 100 µM
[24]
  TGI: > 100 µM
[25]
  TGI: > 100 µM
[26]
  TGI: > 100 µM
[27]
  TGI: > 100 µM
[28]
  TGI: > 100 µM
[29]
  TGI: > 100 µM
[30]
  TGI: > 100 µM
[31]
  TGI: > 100 µM
[32]
  TGI: > 100 µM
[33]
  TGI: > 100 µM
[34]
  TGI: > 100 µM
[35]
  TGI: > 100 µM
[36]
  TGI: > 100 µM
[37]
  TGI: 37.9 µM
[38]
  TGI: > 100 µM
[39]
  TGI: 3.25 µM
[40]
  TGI: > 100 µM
[41]
  TGI: > 100 µM
[42]
  TGI: > 100 µM
[43]
  TGI: 98.1 µM
[44]
  TGI: > 100 µM
[45]
  TGI: > 100 µM
[46]
  TGI: 3.01 µM
[47]
  TGI: 22.4 µM
[48]
  TGI: > 100 µM
[49]
  TGI: 93.5 µM
[50]
  TGI: > 100 µM
[51]
  TGI: > 100 µM
[52]
  TGI: 84.7 µM
[53]
  TGI: > 100 µM
[54]
  TGI: > 100 µM
[55]
  TGI: > 100 µM

## CC1NC(=O)C(C)C(c2ccccc2)N(N=O)C1c1ccccc1 (configuration not stated)
[2]
  TGI: > 100 µM
[3]
  TGI: > 100 µM
[56]
  TGI: > 100 µM
[57]
  TGI: > 100 µM
[4]
  TGI: > 100 µM
[5]
  TGI: > 100 µM
[6]
  TGI: > 100 µM
[58]
  TGI: > 100 µM
[7]
  TGI: > 100 µM
[8]
  TGI: > 100 µM
[9]
  TGI: > 100 µM
[11]
  TGI: 97.1 µM
[12]
  TGI: > 100 µM
[13]
  TGI: > 100 µM
[14]
  TGI: > 100 µM
[15]
  TGI: > 100 µM
[16]
  TGI: > 100 µM
[17]
  TGI: > 100 µM
[18]
  TGI: > 100 µM
[19]
  TGI: > 100 µM
[20]
  TGI: > 100 µM
[21]
  TGI: > 100 µM
[23]
  TGI: > 100 µM
[24]
  TGI: > 100 µM
[25]
  TGI: > 100 µM
[27]
  TGI: 61.5 µM
[28]
  TGI: > 100 µM
[30]
  TGI: > 100 µM
[31]
  TGI: > 100 µM
[33]
  TGI: > 100 µM
[34]
  TGI: > 100 µM
[59]
  TGI: > 100 µM
[35]
  TGI: > 100 µM
[36]
  TGI: > 100 µM
[37]
  TGI: > 100 µM
[60]
  TGI: > 100 µM
[61]
  TGI: > 100 µM
[38]
  TGI: > 100 µM
[39]
  TGI: > 100 µM
[40]
  TGI: > 100 µM
[41]
  TGI: > 100 µM
[43]
  TGI: > 79.3 µM
[44]
  TGI: > 100 µM
[45]
  TGI: > 100 µM
[46]
  TGI: > 100 µM
[62]
  TGI: > 100 µM
[47]
  TGI: > 100 µM
[48]
  TGI: > 100 µM
[49]
  TGI: > 100 µM
[63]
  TGI: > 100 µM
[50]
  TGI: > 100 µM
[51]
  TGI: > 79.1 µM
[64]
  TGI: > 89.2 µM
[52]
  TGI: > 100 µM
[53]
  TGI: > 100 µM
[54]
  TGI: > 100 µM

## Cc1ccc(C(=O)OC(C(=O)O)C(OC(=O)c2ccc(C)cc2)C(=O)O)cc1 (configuration not stated) (tested in a mixture with another compound)
[2]
  TGI: 19.3 µM
[3]
  TGI: 12.8 µM
[56]
  TGI: 17 µM
[57]
  TGI: 8.41 µM
[4]
  TGI: 4.39 µM
[5]
  TGI: 10.1 µM
[6]
  TGI: 13 µM
[58]
  TGI: 14.3 µM
[7]
  TGI: 10.2 µM
[8]
  TGI: 13.8 µM
[9]
  TGI: 21.3 µM
[11]
  TGI: 21.6 µM
[12]
  TGI: 17.6 µM
[13]
  TGI: 16.7 µM
[14]
  TGI: 9.23 µM
[15]
  TGI: 24.5 µM
[16]
  TGI: 22.4 µM
[17]
  TGI: 24.6 µM
[18]
  TGI: 22.3 µM
[19]
  TGI: 26.5 µM
[20]
  TGI: 11.8 µM
[21]
  TGI: 25.2 µM
[23]
  TGI: 12.9 µM
[24]
  TGI: 19 µM
[25]
  TGI: 7.87 µM
[27]
  TGI: 4.08 µM
[28]
  TGI: 26.6 µM
[30]
  TGI: 19.7 µM
[31]
  TGI: 33.8 µM
[33]
  TGI: 14.5 µM
[34]
  TGI: 10.3 µM
[59]
  TGI: 21.2 µM
[35]
  TGI: 11.4 µM
[36]
  TGI: 7.72 µM
[37]
  TGI: 10.2 µM
[60]
  TGI: 24.8 µM
[61]
  TGI: 11.8 µM
[38]
  TGI: 28.3 µM
[39]
  TGI: 10.5 µM
[40]
  TGI: 25.6 µM
[41]
  TGI: 22.2 µM
[42]
  TGI: 15.1 µM
[43]
  TGI: 14.8 µM
[44]
  TGI: 13.7 µM
[45]
  TGI: 23.5 µM
[46]
  TGI: 32 µM
[62]
  TGI: 23 µM
[47]
  TGI: 16 µM
[48]
  TGI: 31.6 µM
[49]
  TGI: 12 µM
[63]
  TGI: 11.7 µM
[50]
  TGI: 10.2 µM
[51]
  TGI: 28.2 µM
[64]
  TGI: 7.53 µM
[52]
  TGI: 29.2 µM
[53]
  TGI: 10.7 µM
[54]
  TGI: 20.6 µM

## CC(=O)OCCOCNC(=S)N/N=C/c1ccc([N+](=O)[O-])o1
[1]
  TGI: > 100 µM
[2]
  TGI: > 100 µM
[3]
  TGI: > 100 µM
[56]
  TGI: > 100 µM
[4]
  TGI: > 100 µM
[5]
  TGI: > 100 µM
[6]
  TGI: > 100 µM
[7]
  TGI: > 100 µM
[8]
  TGI: > 100 µM
[9]
  TGI: > 100 µM
[10]
  TGI: > 100 µM
[11]
  TGI: > 100 µM
[12]
  TGI: > 100 µM
[13]
  TGI: > 100 µM
[15]
  TGI: > 100 µM
[16]
  TGI: > 100 µM
[17]
  TGI: > 100 µM
[18]
  TGI: > 100 µM
[19]
  TGI: > 100 µM
[21]
  TGI: > 100 µM
[22]
  TGI: > 100 µM
[23]
  TGI: 43.1 µM
[24]
  TGI: > 100 µM
[25]
  TGI: > 100 µM
[26]
  TGI: > 100 µM
[27]
  TGI: 39.2 µM
[28]
  TGI: > 100 µM
[30]
  TGI: > 100 µM
[31]
  TGI: > 100 µM
[32]
  TGI: > 100 µM
[33]
  TGI: > 100 µM
[34]
  TGI: > 100 µM
[35]
  TGI: > 100 µM
[36]
  TGI: > 100 µM
[37]
  TGI: > 100 µM
[60]
  TGI: > 100 µM
[38]
  TGI: > 100 µM
[39]
  TGI: 42.9 µM
[40]
  TGI: > 100 µM
[41]
  TGI: > 100 µM
[42]
  TGI: 31 µM
[43]
  TGI: > 100 µM
[44]
  TGI: > 100 µM
[45]
  TGI: > 100 µM
[46]
  TGI: > 100 µM
[47]
  TGI: > 100 µM
[48]
  TGI: > 100 µM
[49]
  TGI: > 100 µM
[50]
  TGI: > 100 µM
[51]
  TGI: > 100 µM
[52]
  TGI: > 100 µM
[53]
  TGI: > 100 µM
[54]
  TGI: > 100 µM
[55]
  TGI: > 100 µM
